Data on two compounds can be found in ChEMBL document CHEMBL1157411, “Marine natural product libraries for high-throughput screening and rapid drug discovery” (J Nat Prod, 2008).

Activity calls are given as the source filed them. No cut-off for these calls is given here.

In one experiment the test system is Nucleic Acid. Kind of experiment: Binding affinity to supercoiled pRYG plasmid DNA assessed as DNA intercalation at 50 uM after 21 hrs by electrophoresis. Format: nucleic-acid assay.
A short description of experiment [1]: Selectivity ratio for IC50 of BRCA2-deficient Chinese hamster V-C8 mutant cells to IC50 of BRCA2-proficient Chinese hamster BAC29 mutant cells. Format: functional, Cricetulus griseus.
A short description of experiment [2]: Cytotoxicity against BRCA2-proficient Chinese hamster BAC29 mutant cells after 3 days by WST1 cell viability assay. Format: functional, cell-based. Conditions: Cricetulus griseus, WST1, 72 h. For orientation: Tetrazolium dyes change colour on reduction, which living cells bring about.
Experiment [3] is described as follows: Cytotoxicity against BRCA2-deficient Chinese hamster V-C8 mutant cells after 3 days by WST1 cell viability assay. Format: functional, cell-based. Conditions: Cricetulus griseus, WST1, 72 h.

In the case of `COc1cccc2c1C(=O)c1c(O)c3c(c(O)c1C2=O)C[C@@](O)(C(=O)CO)C[C@@H]3O[C@H]1C[C@H](N)[C@H](O)[C@H](C)O1`, in the experiment on Nucleic Acid, the result was Active.

With `CO[C@@]12[C@H](COC(N)=O)C3=C(C(=O)C(C)=C(N)C3=O)N1C[C@@H]1N[C@@H]12` [MITOMYCIN], in experiment [1], the “Ratio IC50” value is 292. Further, the IC50 (commonly the concentration that gives 50% inhibition) in experiment [2] is 400 nM; in experiment [3] it was 5 nM.
